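Five concentrations, 48 hours, 96-well plates. TGI denotes the concentration required for complete inhibition of growth.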

The results in this text go back to PubChem BioAssay (NCI).

Some test systems named below: SR leukemia; SK-MEL-5 melanoma; RPMI-8226 leukemia; MALME-3M melanoma; DU-145 prostate; T-47D breast; OVCAR-8 ovarian; ACHN renal; SK-MEL-28 melanoma; RXF 393 renal; COLO 205 colon; NCI-H23 lung; MDA-N; SN12C renal; IGROV1 ovarian; NCI/ADR-RES ovarian; CCRF-CEM leukemia; UO-31 renal.
What all share (experiment): growth of human tumour cells (NCI), 48 h

As for `COC1C(O)C(C)OC(OC2CCC3(C)C(CCC4C3C(O)CC3(C)C(C5=CC(=O)OC5)CCC43O)C2)C1O` (centres undefined), the TGI in the assay on SR leukemia was over 100 µM; in the assay with SK-MEL-5 melanoma, 0.501 µM; in the assay on RPMI-8226 leukemia, 0.793 µM; with MALME-3M melanoma, 0.667 µM; in the assay on DU-145 prostate, 0.173 µM; with T-47D breast, 2.59 µM. In addition, the TGI in the assay with OVCAR-8 ovarian stood at 1.67 µM; in the assay with ACHN renal it was 0.684 µM; in the assay on SK-MEL-28 melanoma, 1.62 µM; in the assay with RXF 393 renal, 0.237 µM; in the assay with COLO 205 colon, 1.57 µM; in the assay with NCI-H23 lung, 0.308 µM. Besides, the TGI in the assay on MDA-N is 0.905 µM; with SN12C renal, 0.426 µM; in the assay with IGROV1 ovarian, 10.7 µM.
Take `NC(Cc1ccc(B(O)O)cc1)C(=O)NC(CO)CO` (centres undefined): the TGI in the assay on SR leukemia, in the assay with SK-MEL-5 melanoma, with NCI/ADR-RES ovarian, with RPMI-8226 leukemia, in the assay with MALME-3M melanoma and in the assay with CCRF-CEM leukemia was over 100 µM each time. In addition, the TGI in the assay on OVCAR-8 ovarian, in the assay on ACHN renal, in the assay on SK-MEL-28 melanoma, with RXF 393 renal, with COLO 205 colon and with UO-31 renal was over 100 µM in each case. Moreover, the TGI with NCI-H23 lung, in the assay on MDA-N, in the assay on SN12C renal and in the assay with IGROV1 ovarian was over 100 µM throughout.
Turning to `CC(O)[C@@]1(c2ccccc2)CC2(CCN(C)CC2)O[C@H]1C` (some centres undefined), the TGI with SR leukemia, with SK-MEL-5 melanoma, with NCI/ADR-RES ovarian, in the assay on RPMI-8226 leukemia, in the assay with MALME-3M melanoma and with DU-145 prostate was over 100 µM throughout. Also, the TGI is 79 µM in the assay on CCRF-CEM leukemia; 98 µM with T-47D breast; over 100 µM in the assay on OVCAR-8 ovarian; over 100 µM with ACHN renal; over 100 µM in the assay on SK-MEL-28 melanoma; over 100 µM in the assay with RXF 393 renal. For the same molecule, the TGI in the assay on COLO 205 colon, in the assay with UO-31 renal, in the assay with NCI-H23 lung and in the assay with IGROV1 ovarian was over 100 µM throughout.
`COc1ccc(/C(=N\Nc2ccccn2)c2ccccn2)cc1`: the TGI with SR leukemia is over 33.7 µM; in the assay on SK-MEL-5 melanoma, 11.7 µM; with NCI/ADR-RES ovarian, 0.0475 µM; in the assay with RPMI-8226 leukemia it was 3.85 µM; in the assay with DU-145 prostate, over 100 µM; in the assay on CCRF-CEM leukemia, over 100 µM. The TGI is 11.8 µM in the assay with OVCAR-8 ovarian; 2.81 µM with ACHN renal; over 53 µM in the assay with SK-MEL-28 melanoma; 36.6 µM with RXF 393 renal; 12.1 µM in the assay with COLO 205 colon; 0.629 µM in the assay with UO-31 renal. The TGI with NCI-H23 lung was 9.55 µM; in the assay with MDA-N, over 100 µM; in the assay with SN12C renal, over 100 µM; in the assay on IGROV1 ovarian it was 7.89 µM.
`[N-]=[N+]=CC(=O)CCC(=O)N(c1ccccc1)c1ccccc1`: the TGI in the assay on SR leukemia, with SK-MEL-5 melanoma, in the assay on MALME-3M melanoma, in the assay with DU-145 prostate, with CCRF-CEM leukemia and in the assay on T-47D breast was over 10 µM each time. For the same molecule, the TGI with OVCAR-8 ovarian, with ACHN renal, with SK-MEL-28 melanoma, in the assay with RXF 393 renal, in the assay on UO-31 renal and with NCI-H23 lung was over 10 µM in each case. The TGI in the assay on MDA-N, in the assay with SN12C renal and with IGROV1 ovarian was over 10 µM each time.
Regarding `CN(C)c1ccc(/C=C/c2cc(-c3ccccc3)[n+](C)n2-c2ccccc2)cc1`, the TGI is over 30 µM in the assay with SR leukemia; 0.522 µM in the assay with SK-MEL-5 melanoma; over 100 µM in the assay on NCI/ADR-RES ovarian; over 100 µM with RPMI-8226 leukemia; 22.7 µM in the assay on DU-145 prostate; 16 µM with ACHN renal. Moreover, the TGI is over 34.6 µM with SK-MEL-28 melanoma; 4.18 µM in the assay with RXF 393 renal; 0.42 µM in the assay on COLO 205 colon; 6.66 µM in the assay with UO-31 renal; 0.92 µM in the assay with NCI-H23 lung; 13.6 µM with MDA-N. For the same molecule, the TGI was 7.6 µM in the assay on SN12C renal and 3.76 µM in the assay on IGROV1 ovarian.
Consider `Cc1cccc2c1c(=O)c1c(O)cc(O)cc1n2C`, for which the TGI in the assay on SR leukemia, with SK-MEL-5 melanoma, in the assay with NCI/ADR-RES ovarian, with RPMI-8226 leukemia, in the assay with MALME-3M melanoma and in the assay on DU-145 prostate was over 100 µM each time. Also, the TGI in the assay with CCRF-CEM leukemia, in the assay with OVCAR-8 ovarian, in the assay on ACHN renal, in the assay on SK-MEL-28 melanoma, in the assay on RXF 393 renal and in the assay on COLO 205 colon was over 100 µM in each case. Further, the TGI with NCI-H23 lung, in the assay with MDA-N, with SN12C renal and in the assay with IGROV1 ovarian was over 100 µM throughout.
On to `CC(C)[C@@H](C)[C@@]1(C)C[C@@H]1[C@@H](C)[C@H]1CC[C@@H]([C@@H]2CC=C3C[C@@H](O)CC[C@]3(C)C2=O)[C@]1(C)CCO`, for which the TGI in the assay with SR leukemia worked out at 13.3 µM; in the assay with SK-MEL-5 melanoma it was 26.4 µM; with NCI/ADR-RES ovarian it was 26.6 µM; in the assay with RPMI-8226 leukemia, 52 µM; in the assay on MALME-3M melanoma, 27.4 µM; with DU-145 prostate, 28.7 µM. The TGI in the assay on OVCAR-8 ovarian was found to be 25.5 µM; in the assay on ACHN renal, 25 µM; in the assay with SK-MEL-28 melanoma, 20.1 µM; with RXF 393 renal it was 11.5 µM; in the assay on COLO 205 colon it was 24.3 µM; in the assay with UO-31 renal, 28.5 µM. The TGI in the assay with NCI-H23 lung is 27.2 µM; in the assay with MDA-N, 26.1 µM; in the assay on SN12C renal, 25.5 µM; with IGROV1 ovarian, 29.8 µM.
